Experimental data from ChEMBL document CHEMBL1135808, “A new type of mixed anhydride and its applications to the synthesis of 7-substituted 8-chloro-5,5-dioxoimidazo[1,2-b][1,4,2]benzodithiazines with in vitro antitumor activity” (2002).

Tests used:
MDA-N = assay: In vitro growth inhibition against breast cancer MDA-N cell line was reported.; format: functional; conditions: Homo sapiens
HCT-116 = assay: In vitro growth inhibition against colon cancer HCT116 cell line was reported.; format: functional; conditions: Homo sapiens
SF-295 = assay: In vitro total growth inhibition against CNS cancer SF-295 cell lines was reported.; format: functional; conditions: Homo sapiens, read-out: Log TGI (converted)
SNB-19 = assay: In vitro growth inhibition against CNS cancer SNB-19 cell line was reported.; format: functional; conditions: Homo sapiens
HT-29 = assay: In vitro total growth inhibition against colon cancer HT-29 cell lines was reported.; format: functional; conditions: Homo sapiens, read-out: Log TGI (converted)
KM12 [1] = assay: In vitro growth inhibition against colon cancer KM12 cell line was reported.; format: functional; conditions: Homo sapiens
SW-620 [2] = assay: In vitro growth inhibition against colon cancer SW620 cell line was reported.; format: functional; conditions: Homo sapiens
Tumor Cell line [3] = assay: In vitro inhibition of 50% cell growth was reported as log of molar concentration for 60 cell lines.; format: functional; conditions: Homo sapiens
Tumor Cell line [4] = assay: In vitro total growth inhibition for 50 cell lines was reported as log of molar concentration; format: functional, Homo sapiens
CCRF-CEM = assay: In vitro total growth inhibition against leukemia CCRF cell lines was reported.; format: functional; conditions: Homo sapiens, read-out: Log TGI (converted)
HL-60 = assay: In vitro total growth inhibition against leukemia HL-60(TB) cell lines was reported.; format: functional; conditions: Homo sapiens, read-out: Log TGI (converted)
SR [5] = assay: In vitro growth inhibition against leukemia SR cell line was reported.; format: functional; conditions: Homo sapiens
SK-MEL-28 [6] = assay: In vitro growth inhibition against melanoma SK-MEL-28 cell line was reported.; format: functional; conditions: Homo sapiens
Homo sapiens = species on record: Homo sapiens; assay: In vitro total growth inhibition against non-small-cell lung cancer EKVX cell lines was reported.; format: functional; conditions: read-out: Log TGI (converted)
OVCAR-4 = assay: In vitro growth inhibition against ovarian cancer OVCAR-4 cell line was reported.; format: functional; conditions: Homo sapiens
SK-OV-3 = assay: In vitro total growth inhibition against ovarian cancer SK-OV-3 cell lines was reported.; format: functional; conditions: Homo sapiens, read-out: Log TGI (converted)
SR [7] = assay: Log of molar concentration leading to 50% cell death against leukemia SR cell line was reported; format: functional; conditions: Homo sapiens, read-out: Log LC50 (the source's name) (converted)
KM12 [8] = assay: Log of molar concentration leading to 50% cell death against colon cancer KM12 cell line was reported; format: functional; conditions: Homo sapiens, read-out: Log LC50 (the source's name) (converted)
SW-620 [9] = assay: Log of molar concentration leading to 50% cell death against colon cancer SW620 cell line was reported; format: functional; conditions: Homo sapiens, read-out: Log LC50 (the source's name) (converted)
OVCAR-5 = assay: Log of molar concentration leading to 50% cell death against ovarian cancer […] cell line was reported; format: functional; conditions: Homo sapiens, read-out: Log LC50 (the source's name) (converted)
[10] = Log of molar concentration leading to 50% cell death against breast cancer MDA-MB-435 cell line was reported; format: functional; conditions: Homo sapiens, read-out: Log LC50 (the source's name) (converted)
T47D = assay: Log of molar concentration leading to 50% cell death against breast cancer […] cell line was reported; format: functional; conditions: Homo sapiens, read-out: Log LC50 (the source's name) (converted)
UACC-62 [11] = assay: In vitro total growth inhibition against melanoma UACC-62 cell lines was reported.; format: functional; conditions: Homo sapiens, read-out: Log TGI (converted)
LOX IMVI = assay: Log of molar concentration leading to 50% cell death against melanoma LOX IMVI cell line was reported; format: functional; conditions: Homo sapiens, read-out: Log LC50 (the source's name) (converted)
Malme-3M [12] = assay: Log of molar concentration leading to 50% cell death against melanoma MALME 3M cell line was reported; format: functional; conditions: Homo sapiens, read-out: Log LC50 (the source's name) (converted)
Malme-3M [13] = assay: In vitro total growth inhibition against melanoma MALME 3M cell lines was reported.; format: functional; conditions: Homo sapiens, read-out: Log TGI (converted)
SK-MEL-28 [14] = assay: Log of molar concentration leading to 50% cell death against melanoma SK-MEL-28 cell line was reported; format: functional; conditions: Homo sapiens, read-out: Log LC50 (the source's name) (converted)
SK-MEL-28 [15] = assay: In vitro total growth inhibition against melanoma SK-MEL-28 cell lines was reported.; format: functional; conditions: Homo sapiens, read-out: Log TGI (converted)
SK-MEL-5 = assay: In vitro total growth inhibition against melanoma SK-MEL-5 cell lines was reported.; format: functional; conditions: Homo sapiens, read-out: Log TGI (converted)
DU-145 = assay: Log of molar concentration leading to 50% cell death against prostate cancer […] cell line was reported; format: functional; conditions: Homo sapiens, read-out: Log LC50 (the source's name) (converted)
A549 [16] = assay: In vitro growth inhibition against non-small-cell lung cancer A 549/ATCC cell line was reported.; format: functional; conditions: Homo sapiens
EKVX = assay: In vitro growth inhibition against non-small-cell lung cancer EKVX cell line was reported.; format: functional; conditions: Homo sapiens
HOP-92 = assay: In vitro growth inhibition against non-small-cell lung cancer HOP-92 cell line was reported.; format: functional; conditions: Homo sapiens
NCI-H46 = assay: In vitro growth inhibition against non-small-cell lung cancer […] cell line was reported.; format: functional; conditions: Homo sapiens
786-0 = assay: Log of molar concentration leading to 50% cell death against renal cancer […] cell line was reported; format: functional; conditions: Homo sapiens, read-out: Log LC50 (the source's name) (converted)
A549 [17] = assay: Log of molar concentration leading to 50% cell death against non-small-cell lung cancer A 549/ATCC cell line was reported; format: functional; conditions: Homo sapiens, read-out: Log LC50 (the source's name) (converted)
UACC-62 [18] = assay: Log of molar concentration leading to 50% cell death against melanoma UACC-62 cell line was reported; format: functional; conditions: Homo sapiens, read-out: Log LC50 (the source's name) (converted)
COLO 205 = assay: In vitro growth inhibition against colon cancer COLO 205 cell line was reported.; format: functional; conditions: Homo sapiens
MDA-MB-435 = assay: In vitro growth inhibition against breast cancer MDA-MB-435 cell line was reported.; conditions: Homo sapiens

## Cc1ccc2cccc(NC(=O)c3cc4c(cc3Cl)Sc3nccn3S4(=O)=O)c2n1
MDA-N
  GI50: 13.8 µM
HCT-116
  GI50: 4.57 µM
SF-295
  TGI: 24.5 µM
SNB-19
  GI50: 10.2 µM
HT-29
  TGI: 56.2 µM
KM12 [1]
  GI50: 6.61 µM
SW-620 [2]
  GI50: 7.76 µM
Tumor Cell line [3]
  GI50: 97.7 µM
Tumor Cell line [4]
  Log GTI: -4.01
CCRF-CEM
  TGI: 17 µM
HL-60
  TGI: 0.01 µM
SR [5]
  GI50: 2.24 µM
SK-MEL-28 [6]
  GI50: 9.55 µM
Homo sapiens
  TGI: 25.7 µM
OVCAR-4
  GI50: 11 µM
SK-OV-3
  TGI: 97.7 µM
SR [7]
  CC50: 27.5 µM
KM12 [8]
  CC50: 43.7 µM
SW-620 [9]
  CC50: 58.9 µM
OVCAR-5
  CC50: 91.2 µM
[10]
  CC50: 55 µM
T47D
  CC50: 38 µM
UACC-62 [11]
  TGI: 30.9 µM
LOX IMVI
  CC50: 45.7 µM
Malme-3M [12]
  CC50: 64.6 µM
Malme-3M [13]
  TGI: 33.1 µM
SK-MEL-28 [14]
  CC50: 75.9 µM
SK-MEL-28 [15]
  TGI: 26.9 µM
SK-MEL-5
  TGI: 23.4 µM
DU-145
  CC50: 42.7 µM
A549 [16]
  GI50: 12.3 µM
EKVX
  GI50: 17 µM
HOP-92
  GI50: 14.5 µM
NCI-H46
  GI50: 2.63 µM
786-0
  CC50: 91.2 µM
A549 [17]
  CC50: 63.1 µM
UACC-62 [18]
  CC50: 67.6 µM
COLO 205
  GI50: 17 µM
MDA-MB-435
  GI50: 7.94 µM
